What is called melting point is the temperature, or range, at which the solid turns liquid.

The structures appear in SMILES notation.

System in the first series: not given
Experiment: not given
Conditions: not given
`Cc1c(COCCC2(O)CCCCC2)[nH]c2ccccc2c1=O` [Ex 205] returned a melting point of 125 to 127 °C.
On the same count and under the same terms, the figure for `Cc1c(COc2ncc(C(=O)NC3CCCC3)cn2)[nH]c2ccccc2c1=O` [Ex 230] is > 231 °C (dec.); for `Cc1c(COc2cccc(OCC3CCOCC3)n2)[nH]c2ccccc2c1=O` [Ex 143] it is 221 to 223 °C; for `Cc1c(COc2cccc(OCC3CCOCC3)c2)[nH]c2ccccc2c1=O` [Example 2, 3-methyl-2-{[3-(tetrahydro-2H-pyran-4-ylmethoxy)phenoxy]methyl}quinolin-4(1H)-one] it is 200 to 202 °C.
Consider `Cc1c(COc2cccc(N3CCC(OCCC(C)(C)O)CC3)c2)[nH]c2ccccc2c1=O` [Ex 194], for which the melting point lay in the range of 160 to 163 °C.
On the same count and under the same terms, the figure for `Cc1c(CCC2CCN(C(=O)C3CC3)CC2)[nH]c2ccccc2c1=O` [Ex 209] is 222 to 224 °C.
Same read-out and setting: the result for `Cc1c(COc2ccc(CCC3(O)CCCC3)cc2)[nH]c2ccccc2c1=O` [Example 3, 2-({4-[2-(1-hydroxycyclopentyl)ethyl]phenoxy}methyl)-3-methylquinolin-4(1H)-one] reads 200 to 202 °C; that for `CCS(=O)(=O)N1CCC(CCc2[nH]c3ccccc3c(=O)c2C)CC1` [Ex 279], 225 to 228 °C.
The same measure, in the same setting: the result for `CCCCCCCS(=O)(=O)Cc1[nH]c2ccccc2c(=O)c1C` [Example 19, 2-[(heptylsulfonyl)methyl]-3-methylquinolin-4(1H)-one] reads > 310 °C (dec.).
With `Cc1c(CO[C@H]2CC[C@H](N3CCCC3=O)CC2)[nH]c2ccccc2c1=O` [Example 7, 3-methyl-2-({[trans-4-(2-oxopyrrolidin-1-yl)cyclohexyl]oxy}methyl)quinolin-4(1H)-one], the melting point lay within 216 to 217 °C.
In turn, `Cc1c(CCc2cc(OCC3CCOCC3)ccn2)[nH]c2ccccc2c1=O` [Ex 184] yielded a melting point of 212 to 215 °C.
The same measure, in the same setting: the figure for `Cc1c(CCC2CCN(C(=O)CC(C)(C)O)CC2)[nH]c2ccccc2c1=O` [Ex 271] is 203 to 205 °C; for `Cc1c(COCCCCOCCC2CC2)[nH]c2ccccc2c1=O` [Ex 53] it is 155 to 157 °C.
In the case of `Cc1c(COCCCCOc2cccc3c2OC(C)(C)C3)[nH]c2ccccc2c1=O` [Ex 52], the melting point is 139 to 140 °C.
Still for that read-out and setting: the figure for `CCOC(=O)N1CCC(CCc2[nH]c3ccccc3c(=O)c2C)CC1` [Ex 276] is 211 to 213 °C; for `CCS(=O)(=O)N[C@H]1CC[C@H](OCc2[nH]c3ccccc3c(=O)c2C)CC1` [Example 6, N-{trans-4-[(3-methyl-4-oxo-1,4-dihydroquinolin-2-yl)methoxy]cyclohexyl}ethanesulfonamide] it is 245 to 247 °C.
The same measure, in the same setting: the result for `Cc1c(COc2ccc3c(c2)CCN(C(=O)CC(C)(C)O)C3)[nH]c2ccccc2c1=O` [Ex 213] reads 135 to 138 °C; that for `Cc1c(CCCCCOc2ccc(F)cc2F)[nH]c2ccc(F)cc2c1=O` [Ex 28], 201 to 203 °C.
Still for that read-out and setting: the result for `CCNC(=O)N[C@H]1CC[C@H](OCc2[nH]c3ccccc3c(=O)c2C)CC1` [Ex 224] reads > 270 °C (dec.).
Take `Cc1c(COc2cc(OCCC3(O)CCOCC3)ccn2)[nH]c2ccccc2c1=O` [Ex 179]: the melting point is 189 to 190 °C.
Consider `Cc1c(COc2cc(OCCC(C)(C)O)cc(N3CCOCC3)c2)[nH]c2ccccc2c1=O` [Example 10, 2-{[3-(3-hydroxy-3-methylbutoxy)-5-morpholin-4-ylphenoxy]methyl}-3-methylquinolin-4(1H)-one], for which the melting point is 189 to 190 °C.
On the same count and under the same terms, the result for `Cc1c(COC2CCOCC2)[nH]c2ccccc2c1=O` [Ex 212] reads 194 to 196 °C.
`Cc1c(COc2cccc(N3CCOCC3=O)c2)[nH]c2ccccc2c1=O` [Example 9, 3-methyl-2-{[3-(3-oxomorpholin-4-yl)phenoxy]methyl}quinolin-4(1H)-one] showed a melting point of 221 to 223 °C.
Still for that read-out and setting: the figure for `CCCCCC(=O)N1CCN(Cc2[nH]c3ccccc3c(=O)c2C)CC1` [Ex 181] is 171 to 173 °C; for `Cc1cccc(CNC(=O)OCc2[nH]c3ccccc3c(=O)c2C)c1` [Ex 283] it is 240 to 243 °C.
`CCOC(=O)N[C@H]1CC[C@H](OCc2[nH]c3ccccc3c(=O)c2C)CC1` [Example 5, ethyl {trans-4-[(3-methyl-4-oxo-1,4-dihydroquinolin-2-yl]methoxy]cyclohexyl}carbamate] returned a melting point of 268 to 271 °C.
Same read-out and setting: the result for `Cc1c(COCC(C)(C)COC(=O)N2CCOCC2)[nH]c2ccccc2c1=O` [Ex 204] reads 155 to 157 °C.

For the next series, the system named is NADPH oxidase. The series can be described thus: Inhibitory activity on ROS production derived from NADPH oxidase (HUVECs, nitrotetrazolium blue). Conditions: 1.0 μM test compound, 25 mM glucose, 200 μM NADPH, 2 hours. Format: cell-based, Human. The method, then:
Test 1: Inhibitory Activity on ROS Production Derived from NADPH Oxidase
This activity was measured by using Human Umbilical Vein Endothelial Cells (HUVECs). The test method is as follows.
3×10^4 cells/well (100 μL) of HUVECs were seeded into a 96-well plate coated with collagen. The culture medium was MCDB131 medium containing 10% fetal bovine serum, 2 mM glutamine, 100 U/mL penicillin, 100 U/mL streptomycin, and 10 ng/mL recombinant human basic-FGF. On the next day, the culture medium was removed by an aspirator, and 100 μL/well of phosphate buffered saline containing 25 mM glucose, 200 μM NADPH, 0.2% nitrotetrazolium blue, and test compounds followed by culturing at 37° C. Nitrotetrazolium blue reacts with intracellularly produced ROS and turns into a water-insoluble blue pigment. After 2 hours, the supernatant was discarded, and the wells were washed three times with phosphate buffered physiological saline. Then, 100 μL/well of 90% DMSO water containing 0.04M sodium hydroxide was added to each well to completely dissolve the pigment, and an absorbance at a wavelength of 715 nm was measured. By taking an absorbance with no addition of a test compound as A, an absorbance […], and an absorbance with addition of glucose, NADPH and a test compound as C, ROS production inhibitory rate was calculated according to the following equation. Inhibition rate (%)=[…]
Abbreviation “Ex” in the table represents Example Compound No. which will follow, and abbreviation “Inh” represents an ROS production inhibition rate. It was confirmed that the compounds of the formula (I) of the present invention have an excellent ROS production inhibitory activity.
Regarding `Cc1c(COC(=O)NCC2CCCCC2)[nH]c2ccccc2c1=O` [Ex 291], the “Inh(%) ROS production inhibition rate” value amounted to 118.8 ± 0.4%.
The same measure, in the same setting: the result for `Cc1c(COc2cccc(OCC3CCOCC3)c2)[nH]c2ccccc2c1=O` [Example 2, 3-methyl-2-{[3-(tetrahydro-2H-pyran-4-ylmethoxy)phenoxy]methyl}quinolin-4(1H)-one] reads 91.9 ± 5.2%; that for `Cc1c(COCCCCOc2ccc(C#N)cc2)[nH]c2ccccc2c1=O` [Ex 49], 90.8 ± 5.2%; that for `CCS(=O)(=O)N1CCC(CCc2[nH]c3ccccc3c(=O)c2C)CC1` [Ex 279], 98.9 ± 1.0%.
On the same count and under the same terms, the figure for `CCCCCCCS(=O)(=O)Cc1[nH]c2ccccc2c(=O)c1C` [Example 19, 2-[(heptylsulfonyl)methyl]-3-methylquinolin-4(1H)-one] is 99.1 ± 0.0%; for `Cc1c(COCCN(C(=O)C2CCOCC2)C2CCCCC2)[nH]c2ccccc2c1=O` [Ex 228] it is 66.3 ± 2.1%; for `CCOC(=O)N1CCC(CCc2[nH]c3ccccc3c(=O)c2C)CC1` [Ex 276] it is 118.2 ± 4.0%.
On the same count and under the same terms, the result for `Cc1c(COC(=O)Nc2cccc(Cc3ccccc3)c2)[nH]c2ccccc2c1=O` [Ex 285] reads 67.3 ± 0.1%; that for `Cc1c(COc2cccc(N3CCC(C)(O)CC3)c2)[nH]c2ccccc2c1=O` [Ex 199], 93.1 ± 1.1%; that for `CCS(=O)(=O)N[C@H]1CC[C@H](OCc2[nH]c3ccccc3c(=O)c2C)CC1` [Example 6, N-{trans-4-[(3-methyl-4-oxo-1,4-dihydroquinolin-2-yl)methoxy]cyclohexyl}ethanesulfonamide], 79.9 ± 1.2%.
For the molecule `CCCCCC(=O)N1CCC(OCc2[nH]c3ccc(F)cc3c(=O)c2C)CC1` [Ex 128], the “Inh(%) ROS production inhibition rate” value came out at 77.7 ± 3.9%.
Still for that read-out and setting: the figure for `COC(C)(C)CCOCCCCOCc1[nH]c2ccccc2c(=O)c1C` [Ex 55] is 57.3 ± 2.3%; for `CC(=O)N1CCC(COc2cccc(OCc3[nH]c4ccccc4c(=O)c3C)c2)CC1` [Ex 98] it is 101.5 ± 1.9%.
The same measure, in the same setting: the figure for `Cc1c(COc2cccc(N3CCOCC3=O)c2)[nH]c2ccccc2c1=O` [Example 9, 3-methyl-2-{[3-(3-oxomorpholin-4-yl)phenoxy]methyl}quinolin-4(1H)-one] is 88.7 ± 1.5%.
Still for that read-out and setting: the result for `Cc1c(COc2cccc(N3CCC(O)CC3)c2)[nH]c2ccccc2c1=O` [Ex 198] reads 97.5 ± 6.1%.
`Cc1c(COc2cccc(OCCc3ccncc3)c2)[nH]c2ccccc2c1=O` [Ex 127]: the “Inh(%) ROS production inhibition rate” value amounted to 85.3 ± 2.9%.
For the molecule `Cc1cccc(CNC(=O)OCc2[nH]c3ccccc3c(=O)c2C)c1` [Ex 283], the “Inh(%) ROS production inhibition rate” value is 61.6 ± 1.7%.
As for `COCCc1ccc(OCCCCOCc2[nH]c3ccccc3c(=O)c2C)cc1` [Ex 50], the “Inh(%) ROS production inhibition rate” value was 80.5 ± 2.5%.
The same measure, in the same setting: the result for `Cc1c(COc2ccc3c(c2)N(C(=O)CC2CCOCC2)CCC3)[nH]c2ccc(F)cc2c1=O` [Ex 166] reads 84.3 ± 2.4%; that for `Cc1c(CN2CCc3cc(OCC4CCOCC4)ccc3C2)[nH]c2ccccc2c1=O` [Ex 180], 69.5 ± 1.3%.

Values taken from patent publication US8367702B2, “Quinolone derivative” (Astellas Pharma Inc., priority 2007, dated 2013).
